{"source": "patent US6864251B2", "about": "“Treatment of LTB4-mediated inflammatory disorders with optically-pure (R)-2,3-benzodiazepines” (Vela Pharmaceuticals, Inc., priority 2002, dated 2005)", "key": {"IL-2 production": {"tested_on": "IL-2 production", "settings": "in vitro; cited from earlier work"}, "central BZ receptors": {"tested_on": "central BZ receptors", "settings": "cited from earlier work"}, "lymphocyte": {"tested_on": "lymphocyte", "settings": "in vitro; cited from earlier work"}, "[1]": {"tested_on": "LTB4-induced dermal inflammation", "test": "Rabbit model of LTB4-induced dermal inflammation, histopathology of intradermal challenge sites", "type": "in vivo, New Zealand White Rabbits", "parameters": "key to Inflammation score / Edema score: 0=normal; T=trace; 1=minimal; 2=mild; 3=moderate; 4=marked", "settings": "test article IP 60 mg/kg (dexamethasone 0.5 mg/kg); for Inflammation score / Edema score: 4 hr after challenge; for Histopathology finding: reduction of inflammation and edema: summary in words", "description": "Test compounds were prepared as follows. The vehicle was first prepared by dissolving […] of hydroxypropylmethylcellulose 2910 (HPMC)(Sigma Chemical, St. Louis, Mo.) in 50 mL of 0.9% saline to yield a concentration of 2% HPMC. The three test articles, (R)-, (S)- and racemic tofisopam, were formulated by adding 1 g of each test article to 10 mL of vehicle.\nOn Day 0, the rabbits were sedated with ketamine/xylazine (35/5 mg/kg, s.c.) and an area of approximately 8×14 cm on the back was closely and carefully clipped to expose the skin, but not inflame or otherwise damage the epithelium. A grid of ten squares each approximately 2.5×2.5 cm was drawn on each animal's back using an indelible marker. The animals were then dosed intraperitoneally with the appropriate test article corresponding to the group. Thirty minutes after dosing with test or control article, the animals were challenged intradermally with the LTB4 or LTB4-aminopropamide (LTB4-AP, a synthetic LTB4 agonist) in the appropriate site as shown in Table 4. Each injection site was marked with an indelible marker in order to identify the exact location of the intradermal injection site. Sixty minutes after challenge, the animals were treated again with tofisopam or control articles. The animals were sacrificed 4 hrs. after challenge, and the intradermal injection sites were excised, fixed in 10% neutral buffered formalin (NBF), and submitted for histopathology. H&E-stained sections were read by a board-certified veterinary pathologist using light microscopy.\nAll animals were sacrificed 4 hr after challenge. The intradermal challenge sites were excised, placed on unique cardboard squares, fixed in 10% NBF, and submitted for histopathology. The skin sections included the epidermis and the subcutis, down to the back musculature.\nThe marked skin sections were fixed for at least 48 hours on small cardboard squares. At gross trimming, three levels were cut through marked skin region in order to assure that the injection sites is brought into the plane of section. The skins were gross trimmed, processed by dehydration, embedded in paraffin, sectioned at 3-5 μm, and stained with hematoxylin and eosin.\nThe tissues were evaluated histopathologically via light microscopy by a board-certified veterinary pathologist. Initially, the identity of the slides was masked in order to perform the initial evaluation and rank the slides. The slides were then unmasked and there was a careful assessment of the lesions and careful comparison of the tofisopam-treated sites to the vehicle and positive control tissues. The lesions were graded based upon the degree of inflammation and the degree of edema. The severity of the inflammation and edema was keyed as follows: 0=normal; T=trace; 1=minimal; 2=mild; 3=moderate; 4=marked."}, "peripheral BZ receptors": {"target": "peripheral BZ receptors (Homo sapiens, UniProt P30536)", "sequence (P30536 whole entry)": "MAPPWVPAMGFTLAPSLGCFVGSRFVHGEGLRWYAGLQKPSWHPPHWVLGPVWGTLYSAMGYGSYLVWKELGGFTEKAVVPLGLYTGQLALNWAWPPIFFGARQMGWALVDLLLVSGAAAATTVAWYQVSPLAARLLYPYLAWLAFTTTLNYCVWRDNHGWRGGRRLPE", "settings": "cited from earlier work"}, "[2]": {"settings": "injection site: LTB4 2000 ng, listed as (R,S)-tofisopam"}, "[3]": {"settings": "injection site: LTB-ap 2000 ng, listed as (R,S)-tofisopam"}}, "note": "Several values for one entry are separate records, joined by “and”; a condition that tells them apart may be missing. Equal values may be shown once."}
{"compound": "CCC1C(C)=NN=C(c2ccc(OC)c(OC)c2)c2cc(OC)c(OC)cc21", "note": "(racemic) [Racemic tofisopam, Racemic-1-(3,4-dimethoxyphenyl)-4-methyl-5-ethyl-7,8-dimethoxy-5H-2,3-benzodiazepine]", "values": [{"measurement": "IL-2 production", "setting": "IL-2 production", "result": "enhances"}, {"measurement": "Interaction with central BZ receptors", "setting": "central BZ receptors", "result": "does not interact"}, {"measurement": "Mitogen-induced lymphocyte proliferation", "setting": "lymphocyte", "result": "enhances"}, {"measurement": "Inflammation score", "setting": "[1]; injection site: LTB4 500 ng", "result": 2}, {"measurement": "Edema score", "setting": "[1]; injection site: LTB4 500 ng, listed as (R,S)-tofisopam", "result": "2 and 3"}, {"measurement": "Edema score", "setting": "[1]; injection site: LTB4 1000 ng", "result": 3}, {"measurement": "Inflammation score", "setting": "[1]; injection site: LTB4 1000 ng, listed as (R,S)-tofisopam", "result": "3 and 2"}, {"measurement": "Edema score", "setting": "[1]; [2]", "result": "2 and 1 and 3"}, {"measurement": "Inflammation score", "setting": "[1]; [2]", "result": "2 and 1 and 3"}, {"measurement": "Inflammation score", "setting": "[1]; injection site: LTB-ap 500 ng", "result": 2}, {"measurement": "Edema score", "setting": "[1]; injection site: LTB-ap 500 ng, listed as (R,S)-tofisopam", "result": "2 and 3"}, {"measurement": "Edema score", "setting": "[1]; injection site: LTB-ap 1000 ng", "result": 3}, {"measurement": "Inflammation score", "setting": "[1]; injection site: LTB-ap 1000 ng", "result": 3}, {"measurement": "Edema score", "setting": "[1]; [3]", "result": "2 and 1 and 3"}, {"measurement": "Inflammation score", "setting": "[1]; [3]", "result": "2 and 1"}, {"measurement": "Inflammation score", "setting": "[1]; injection site: Vehicle 0 ng", "result": 1}, {"measurement": "Edema score", "setting": "[1]; injection site: Vehicle 0 ng, listed as (R,S)-tofisopam", "result": "2 and 1"}, {"measurement": "Histopathology finding: reduction of inflammation and edema", "setting": "[1]", "result": "no meaningful reduction in the inflammation and edema"}, {"measurement": "Binding to peripheral BZ receptors", "setting": "peripheral BZ receptors", "result": "binds only weakly"}]}
{"compound": "CC[C@H]1C(C)=NN=C(c2ccc(OC)c(OC)c2)c2cc(OC)c(OC)cc21", "note": "[(R)-tofisopam, (R)-1-(3,4-dimethoxyphenyl)-4-methyl-5-ethyl-7,8-dimethoxy-5H-2,3-benzodiazepine]", "values": [{"measurement": "Edema score", "setting": "[1]; injection site: LTB4 500 ng", "result": "1 and 3"}, {"measurement": "Inflammation score", "setting": "[1]; injection site: LTB4 500 ng", "result": 1}, {"measurement": "Edema score", "setting": "[1]; injection site: LTB4 1000 ng", "result": "2 and 3"}, {"measurement": "Inflammation score", "setting": "[1]; injection site: LTB4 1000 ng", "result": "1 and 2"}, {"measurement": "Edema score", "setting": "[1]; injection site: LTB4 2000 ng", "result": "2 and 3"}, {"measurement": "Inflammation score", "setting": "[1]; injection site: LTB4 2000 ng", "result": "1-2 and 1"}, {"measurement": "Edema score", "setting": "[1]; injection site: LTB-ap 500 ng", "result": "1 and 3"}, {"measurement": "Inflammation score", "setting": "[1]; injection site: LTB-ap 500 ng", "result": 1}, {"measurement": "Edema score", "setting": "[1]; injection site: LTB-ap 1000 ng", "result": "2 and 3"}, {"measurement": "Inflammation score", "setting": "[1]; injection site: LTB-ap 1000 ng", "result": "1 and 2"}, {"measurement": "Edema score", "setting": "[1]; injection site: LTB-ap 2000 ng", "result": "2 and 3 and 1"}, {"measurement": "Inflammation score", "setting": "[1]; injection site: LTB-ap 2000 ng", "result": "1 and 2"}, {"measurement": "Edema score", "setting": "[1]; injection site: Vehicle 0 ng", "result": "0 and 1 and 2"}, {"measurement": "Inflammation score", "setting": "[1]; injection site: Vehicle 0 ng", "result": "0 and 1"}, {"measurement": "Histopathology finding: reduction of inflammation and edema", "setting": "[1]", "result": "meaningful reduction in the severity of the inflammatory cell infiltration and less edema"}]}
{"compound": "CC[C@@H]1C(C)=NN=C(c2ccc(OC)c(OC)c2)c2cc(OC)c(OC)cc21", "note": "[(S)-tofisopam, (S)-1-(3,4-dimethoxyphenyl)-4-methyl-5-ethyl-7,8-dimethoxy-5H-2,3-benzodiazepine]", "values": [{"measurement": "Edema score", "setting": "[1]; injection site: LTB4 500 ng", "result": 2}, {"measurement": "Inflammation score", "setting": "[1]; injection site: LTB4 500 ng", "result": "1 and 2"}, {"measurement": "Edema score", "setting": "[1]; injection site: LTB4 1000 ng", "result": "3 and 4"}, {"measurement": "Edema score", "setting": "[1]; injection site: LTB4 2000 ng", "result": "2 and 4"}, {"measurement": "Edema score", "setting": "[1]; injection site: LTB-ap 500 ng", "result": "2 and 3"}, {"measurement": "Edema score", "setting": "[1]; injection site: LTB-ap 1000 ng", "result": "3 and 4"}, {"measurement": "Edema score", "setting": "[1]; injection site: LTB-ap 2000 ng", "result": "2 and 1 and 4"}, {"measurement": "Edema score", "setting": "[1]; injection site: Vehicle 0 ng", "result": "T and 1"}, {"measurement": "Inflammation score", "setting": "[1]; injection site: Vehicle 0 ng", "result": "T and 1"}, {"measurement": "Histopathology finding: reduction of inflammation and edema", "setting": "[1]", "result": "no meaningful reduction in the inflammation and edema"}]}
